Experimental data as given in patent US9115127B2 (AMGEN INC., priority 2010, dated 2015).
Structures can show the parent of a compound that is named as a salt.

Biological target: T1, wild-type human ALK (cytoplasmic domain, amino acids 1058-1620, N-terminal GST fusion) (Homo sapiens, UniProt Q9UM73)
T1 construct: The cytoplasmic domain (amino acids 1058-1620) of wild-type human ALK; GST (N); made in house; host or cells: SF9 insect cells
Experiment: ALK Inhibition in Enzyme Assay (Lance TR-FRET kinase assay)
Format: biochemical
Experimental: ALK Inhibition in Enzyme Assay
Kinase activity of the purified protein was assessed using a Lance® TR-FRET assay. […] The reaction was allowed to proceed for 90 minutes at room temperature and was then terminated with 20 mM EDTA in 50 mM Tris (pH 7.5), 100 mM NaCl, 0.05% BSA, and 0.1% Tween-20. Phosphorylation of the peptide substrate was detected using the Lance® detection reagents streptavidin-allophycocyanin (SA-APC) and Eu-W1024 anti-phosphotyrosine antibody (PT66) from Perkin Elmer Life Sciences (Waltham, Mass.). The plates were read on a RUBY star plate reader (BMG LABTECH, Cary, N.C.) with an excitation wavelength of 320 nm.

T1 sequence (Q9UM73 1058-1620): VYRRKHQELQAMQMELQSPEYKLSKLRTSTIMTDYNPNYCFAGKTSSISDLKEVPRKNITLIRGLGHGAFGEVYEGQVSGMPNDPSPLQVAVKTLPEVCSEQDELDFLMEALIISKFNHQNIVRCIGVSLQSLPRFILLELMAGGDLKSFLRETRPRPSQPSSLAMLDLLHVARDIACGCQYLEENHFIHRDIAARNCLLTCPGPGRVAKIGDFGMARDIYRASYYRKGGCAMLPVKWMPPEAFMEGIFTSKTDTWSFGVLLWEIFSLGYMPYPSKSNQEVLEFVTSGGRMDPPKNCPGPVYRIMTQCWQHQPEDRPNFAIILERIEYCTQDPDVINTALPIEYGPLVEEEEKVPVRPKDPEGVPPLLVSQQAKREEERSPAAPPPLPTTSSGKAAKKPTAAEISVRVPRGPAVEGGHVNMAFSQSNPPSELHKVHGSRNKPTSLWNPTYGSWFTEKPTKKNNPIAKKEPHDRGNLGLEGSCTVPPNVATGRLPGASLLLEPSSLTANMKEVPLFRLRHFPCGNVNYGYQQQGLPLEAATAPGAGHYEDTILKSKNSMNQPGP

| IC50 [nM] | SMILES |
| --- | --- |
| 100 to 1000 | CC(C)(O)C1CCN(CCOc2cc3c(cn2)[nH]/c(=N\C(=O)c2cccc(F)c2)n3[C@H]2CC[C@@H](C(=O)N3C[C@@H]4C[C@H]3CN4)CC2)CC1 (relative stereo) [Example 84, (E)-N-(1-(cis-4-(cis-2,5-Diazabicyclo[2.2.1]heptane-2-carbonyl)cyclohexyl)-6-(2-(4-(2-hydroxypropan-2-yl)piperidin-1-yl)ethoxy)-1H-imidazo[4,5-c]pyridin-2(3H)-ylidene)-3-fluorobenzamide] |
| 100 to 1000 | COC(=O)[C@H]1CC[C@@H](n2/c(=N/C(=O)c3ccccc3)[nH]c3cnccc32)CC1 [Example 1, cis-Methyl 4-((E)-2-(benzoylimino)-2,3-dihydro-1H-imidazo[4,5-c]pyridin-1-yl)cyclohexanecarboxylate] |
| < 50 | COC(=O)[C@H]1CC[C@@H](n2/c(=N/C(=O)c3ccc(F)cc3)[nH]c3ccc(CO)cc32)CC1 [Example 2] |
| < 50 | COC(=O)[C@H]1CC[C@@H](n2c(NC(=O)c3ccc(F)cc3)nc3ccc(CN4CCCCC4)cc32)CC1 [Example 3, cis-Methyl 4-(2-(4-fluorobenzoylimino)-6-(piperidin-1-ylmethyl)-2,3-dihydro-1H-benzo[d]imidazol-1-yl)cyclohexanecarboxylate] |
| < 50 | COC(=O)[C@H]1CC[C@@H](n2c(NC(=O)c3ccccc3)nc3ccc(CO)cc32)CC1 [Example 4, cis-Methyl 4-(2-benzamido-6-(hydroxymethyl)-1H-benzo[d]imidazol-1-yl)cyclohexanecarboxylate] |
| < 50 | COC(=O)[C@H]1CC[C@@H](n2c(NC(=O)c3ccccc3)nc3ccc(CN4CCOCC4)cc32)CC1 [Example 5, cis-Methyl 4-(2-benzamido-6-(morpholinomethyl)-1H-benzo[d]imidazol-1-yl)cyclohexanecarboxylate] |
| < 50 | CCOC(=O)[C@H]1CC[C@@H](n2c(NC(=O)c3ccc(F)cc3)nc3ccc(CO)cc32)CC1 [Example 6, cis-Ethyl 4-(2-(4-fluorobenzamido)-6-(hydroxymethyl)-1H-benzo[D]imidazol-1-yl)cyclohexanecarboxylate] |
| < 50 | CCOC(=O)[C@H]1CC[C@@H](n2/c(=N/C(=O)c3ccccc3)[nH]c3ccc(CO)cc32)CC1 [Example 7, cis-Ethyl 4-((E)-2-(benzoylimino)-6-(hydroxymethyl)-2,3-dihydro-1H-benzo[d]imidazol-1-yl)cyclohexanecarboxylate] |
| < 50 | CCOC(=O)[C@H]1CC[C@@H](n2/c(=N/C(=O)c3ccc(F)cc3)[nH]c3ccc(CN4CCCCC4)cc32)CC1 [Example 8, cis-Ethyl 4-((E)-2-(4-fluorobenzoylimino)-6-(piperidin-1-ylmethyl)-2,3-dihydro-1H-benzo[d]imidazol-1-yl)cyclohexanecarboxylate] |
| 100 to 1000 | O=C(Nc1nc2ccc(CN3CCCCC3)cc2n1[C@H]1CC[C@@H](C(=O)O)CC1)c1ccc(F)cc1 [Example 10, cis-4-(2-(4-Fluorobenzamido)-6-(piperidin-1-ylmethyl)-1H-benzo[d]imidazol-1-yl)cyclohexanecarboxylic acid hydrochloride] |
| < 50 | CCNC(=O)[C@H]1CC[C@@H](n2/c(=N/C(=O)c3ccc(F)cc3)[nH]c3ccc(CN4CCCCC4)cc32)CC1 [Example 11, (E)-N-(1-(cis-4-(Ethylcarbamoyl)cyclohexyl)-6-(piperidin-1-ylmethyl)-1H-benzo[d]imidazol-2(3H)-ylidene)-4-fluorobenzamide] |
| 100 to 1000 | COC(=O)[C@H]1CC[C@@H](n2/c(=N/C(=O)c3cccc(C(F)(F)F)c3)[nH]c3ccc(CO)cc32)CC1 [Example 12, cis-Methyl 4-((E)-6-(hydroxymethyl)-2-(3-(trifluoromethyl)benzoylimino)-2,3-dihydro-1H-benzo[d]imidazol-1-yl)cyclohexanecarboxyl] |
| 100 to 1000 | O=C(Nc1nc2ccc(CO)cc2n1C12CC3CC(CC(C3)C1)C2)c1ccccc1 [Example 13, N-(1-adamantyl-6-(hydroxymethyl)-1H-benzo[d]imidazol-2-yl)benzamide] |
| < 50 | COC(=O)[C@H]1CC[C@@H](n2c(NC(=O)c3cccc(C(F)(F)F)c3)nc3ccc(CN4CCCCC4)cc32)CC1 [Example 14, cis-Methyl 4-(6-(piperidin-1-ylmethyl)-2-(3-(trifluoromethyl)benzamido)-1H-benzo[d]imidazol-1-yl)cyclohexanecarboxylate] |
| < 50 | CNC(=O)[C@H]1CC[C@@H](n2/c(=N/C(=O)c3ccc(F)cc3)[nH]c3ccc(CN4CCCCC4)cc32)CC1 [Example 15, (E)-N-(1-(cis-4-(Methylcarbamoyl)cyclohexyl)-6-(piperidin-1-ylmethyl)-1H-benzo[d]imidazol-2(3H)-ylidene)-4-fluorobenzamide] |
| 50 to 100 | O=C(/N=c1\[nH]c2ccc(CN3CCCCC3)cc2n1C12CC3CC(CC(C3)C1)C2)c1ccccc1 [Example 16] |
| < 50 | C=CCNS(=O)(=O)c1cccc(C(=O)/N=c2\[nH]c3ccc(CO)cc3n2C23CC4CC(CC(C4)C2)C3)c1 [Example 17, (E)-3-(N-Allylsulfamoyl)-N-(1-adamantyl-6-(hydroxymethyl)-1H-benzo[d]imidazol-2(3H)-ylidene)benzamide] |
| < 50 | C=CCNS(=O)(=O)c1cccc(C(=O)Nc2nc3ccc(CN4CCCCC4)cc3n2C23CC4CC(CC(C4)C2)C3)c1 [Example 18, 3-(N-Allylsulfamoyl)-N-(1-adamantyl-6-(piperidin-1-ylmethyl)-1H-benzo[d]imidazol-2-yl)benzamide] |
| < 50 | COC(=O)[C@H]1CC[C@@H](n2c(NC(=O)c3ccccc3)nc3ccc(CN4C(C)(C)CCCC4(C)C)cc32)CC1 [Example 19, cis-Methyl 4-(2-benzamido-6-((2,2,6,6-tetramethylpiperidin-1-yl)methyl)-1H-benzo[d]imidazol-1-yl)cyclohexanecarboxylate] |
| < 50 | COC(=O)[C@H]1CC[C@@H](n2/c(=N/C(=O)c3ccccc3)[nH]c3cnc(OCCN4CCCCC4)cc32)CC1 [Example 20, cis-Methyl 4-((E)-2-(benzoylimino)-6-(2-(piperidin-1-yl)ethoxy)-2,3-dihydro-1H-imidazo[4,5-c]pyridin-1-yl)cyclohexanecarboxylate] |
| 1000 to 5000 | O=C(/N=c1\[nH]c2cnc(OCCN3CCCCC3)cc2n1[C@H]1CC[C@@H](C(=O)O)CC1)c1ccccc1 [Example 25, cis-4-((E)-2-(Benzoylimino)-6-(2-(piperidin-1-yl)ethoxy)-2,3-dihydro-1H-imidazo[4,5-c]pyridin-1-yl)cyclohexanecarboxylic acid] |
| < 50 | CCNC(=O)[C@H]1CC[C@@H](n2/c(=N/C(=O)c3ccccc3)[nH]c3cnc(OCCN4CCCCC4)cc32)CC1 [Example 26] |
| 100 to 1000 | C=CCNS(=O)(=O)c1cc(C(=O)Nc2nc3ccc(CO)cc3n2[C@H]2CC[C@@H](C(=O)OC)CC2)ccc1F [Example 27, cis-Methyl 4-(2-(3-(N-allylsulfamoyl)-4-fluorobenzamido)-6-(hydroxymethyl)-1H-benzo[d]imidazol-1-yl)cyclohexanecarboxylate] |
| 100 to 1000 | COCCCNS(=O)(=O)c1cc(C(=O)Nc2nc3ccc(CO)cc3n2[C@H]2CC[C@@H](C(=O)OC)CC2)ccc1F [Example 28, cis-Methyl 4-(2-(4-fluoro-3-(N-(3-methoxypropyl)sulfamoyl)benzamido)-6-(hydroxymethyl)-1H-benzo[d]imidazol-1-yl)cyclohexanecarboxylate] |
| < 50 | CC(C)(C)NC(=O)[C@H]1CC[C@@H](n2c(NC(=O)c3ccccc3)nc3ccc(CN4CCCCC4)cc32)CC1 [Example 29, N-(1-(cis-4-(tert-Butylcarbamoyl)cyclohexyl)-6-(piperidin-1-ylmethyl)-1H-benzo[d]imidazol-2-yl)benzamide] |
| < 50 | O=C(/N=c1\[nH]c2ccc(CN3CCCCC3)cc2n1[C@H]1CC[C@@H](C(=O)NC2CC2)CC1)c1ccc(F)cc1 [Example 31, (E)-N-(1-(cis-4-(Cyclopropylcarbamoyl)cyclohexyl)-6-(piperidin-1-ylmethyl)-1H-benzo[d]imidazol-2(3H)-ylidene)-4-fluorobenzamide] |
| < 50 | O=C(/N=c1\[nH]c2ccc(CN3CCCCC3)cc2n1[C@H]1CC[C@@H](C(=O)NCC2CC2)CC1)c1ccc(F)cc1 [Example 32, (E)-N-(1-(cis-4-(Cyclopropylmethylcarbamoyl)cyclohexyl)-6-(piperidin-1-ylmethyl)-1H-benzo[d]imidazol-2(3H)-ylidene)-4-fluorobenzamide] |
| < 50 | C=CCNS(=O)(=O)c1cc(C(=O)Nc2nc3ccc(CN4CCCCC4)cc3n2[C@H]2CC[C@@H](C(=O)OC)CC2)ccc1F [Example 33, cis-Methyl 4-(2-(3-(N-allylsulfamoyl)-4-fluorobenzamido)-6-(piperidin-1-ylmethyl)-1H-benzo[d]imidazol-1-yl)cyclohexanecarboxylate] |
| 100 to 1000 | C=CCNS(=O)(=O)c1cc(C(=O)Nc2nc3ccc(CN4CCCCC4)cc3n2[C@H]2CC[C@@H](C(=O)O)CC2)ccc1F [Example 34, cis-4-(2-(3-(N-Allylsulfamoyl)-4-fluorobenzamido)-6-(piperidin-1-ylmethyl)-1H-benzo[d]imidazol-1-yl)cyclohexanecarboxylic acid] |
| < 50 | CC(C)CNC(=O)[C@H]1CC[C@@H](n2/c(=N/C(=O)c3ccc(F)cc3)[nH]c3ccc(CN4CCCCC4)cc32)CC1 [Example 35, (E)-4-Fluoro-N-(1-(cis-4-(isobutylcarbamoyl)cyclohexyl)-6-(piperidin-1-ylmethyl)-1H-benzo[d]imidazol-2(3H)-ylidene)benzamide] |
